These results are taken from patent publication US11427567B2, “Imidazolyl pyrimidinylamine compounds as CDK2 inhibitors” (Incyte Corporation, priority 2019, dated 2022).

Each structure is given as a SMILES string.

For this assay, the target named is CDK2/Cyclin E1 (Homo sapiens (Human), UniProt P24941). The assay can be described thus: CDK2/Cyclin E1 HTRF enzyme activity assay (Example A). The conditions noted are these: 1 mM ATP. The assay is classed as biochemical. On the procedure: Assays were conducted in white 384-well polystyrene plates in a final reaction volume of 8 μL. […] HTRF signals were read after 1 hour at room temperature on a PHERAstar FS plate reader (BMG Labtech). Data was analyzed with IDBS XLFit and GraphPad Prism 5.0 software using a three or four parameter dose response curve to determine IC50 for each compound.
(In general: TR-FRET usually uses a lanthanide donor and a delayed reading to cut background.)

Usually IC50 stands for the concentration at which inhibition is half-maximal. Read a low IC50 as greater potency. Compound `CCNC(C)c1cccc(-n2cnc(-c3nc(NC4CCN(S(C)(=O)=O)CC4)ncc3C(F)(F)F)c2)c1Cl` (stereo not drawn) [Example 375, 4-(1-(2-Chloro-3-(1-(ethylamino)ethyl)phenyl)-1H-imidazol-4-yl)-N-(1-(methylsulfonyl)piperidin-4-yl)-5-(trifluoromethyl)pyrimidin-2-amine] returned a 50% inhibitory concentration (IC50) of no more than 50 nM. As for `CC(c1cccc(-n2cnc(-c3nc(NC4CCN(S(C)(=O)=O)CC4)ncc3C(F)(F)F)c2)c1Cl)N(C)C` (stereo not drawn) [Example 376, 4-(1-(2-Chloro-3-(1-(dimethylamino)ethyl)phe-nyl)-1H-imidazol-4-yl)-N-(1-(methylsulfonyl)piperidin-4-yl)-5-(trifluoromethyl)pyrimi-din-2-amine], the IC50 was no more than 50 nM.

`CNC(C)c1cccc(-n2cnc(-c3nc(NC4CCN(S(C)(=O)=O)CC4)ncc3C(F)(F)F)c2)c1Cl` (stereo not drawn) [Example 377, 4-(1-(2-Chloro-3-(1-(methylamino)ethyl)phe-nyl)-1H-imidazol-4-yl)-N-(1-(methylsulfonyl)piperidin-4-yl)-5-(trifluoromethyl)pyrimi-din-2-amine]: the IC50 was no more than 50 nM. On to `CNCc1cccc(-n2cnc(-c3nc(NC4CCN(S(C)(=O)=O)CC4)ncc3C(F)(F)F)c2)c1C(F)(F)F` [Example 378, 4-(1-(3-((Methylamino)methyl)-2-(trifluoromethyl)phenyl)-1H-imidazol-4-yl)-N-(1-(methylsulfonyl)piperidin-4-yl)-5-(trifluoromethyl)pyrimidin-2-amine], for which the IC50 is no more than 50 nM. The figure for `CC1(O)CN(Cc2cccc(-n3cnc(-c4nc(NC5CCN(S(C)(=O)=O)CC5)ncc4C(F)(F)F)c3)c2C(F)(F)F)C1` [Example 379, 3-Methyl-1-(3-(4-(2-((1-(methylsulfonyl)piperidin-4-yl)amino)-5-(trifluoromethyl)pyrimi-din-4-yl)-1H-imidazol-1-yl)-2-(trifluoromethyl)benzyl) azetidin-3-ol] is no more than 50 nM; for `CS(=O)(=O)N1CCC(Nc2ncc(C(F)(F)F)c(-c3cn(-c4cccc(CN5CCC5)c4C(F)(F)F)cn3)n2)CC1` [Example 380, 4-(1-(3-(Azetidin-1-ylmethyl)-2-(trifluoromethyl)phenyl)-1H-imidazol-4-yl)-N-(1-(methylsulfonyl)piperidin-4-yl)-5-(trifluoromethyl)pyrimi-din-2-amine] it is no more than 50 nM; for `C[C@@]1(O)CCN(Cc2cccc(-n3cnc(-c4nc(NC5CCN(S(C)(=O)=O)CC5)ncc4C(F)(F)F)c3)c2C(F)(F)F)C1` [Example 381, (R)-3-Methyl-1-(3-(4-(2-((1-(methylsulfonyl)piperidin-4-yl)amino)-5-(trifluoromethyl)pyrimi-din-4-yl)-1H-imidazol-1-yl)-2-(trifluoromethyl)benzyl) pyrrolidin-3-ol] it is no more than 50 nM. Compound `Cc1nc(CN2CCCCC2)ccc1-n1cnc(-c2nc(NC3CCN(S(C)(=O)=O)CC3)ncc2C(F)(F)F)c1` [Example 382, 4-(1-(2-Methyl-6-(piperidin-1-ylmethyl)pyridin-3-yl)-1H-imidazol-4-yl)-N-(1-(methylsulfonyl)piperidin-4-yl)-5-(trifluoromethyl)pyrimidin-2-amine] yielded an IC50 of no more than 50 nM.

As for `Cn1cc(S(=O)(=O)N2CCC(Nc3ncc(C(F)(F)F)c(-c4ncn(C)c4Br)n3)CC2)cn1` [Example 383, 4-(5-Bromo-1-methyl-1H-imidazol-4-yl)-N-(1-((1-methyl-1H-pyrazol-4-yl)sulfonyl)piperidin-4-yl)-5-(trifluoromethyl)pyrimidin-2-amine], the IC50 is no more than 50 nM. The figure for `Cc1nc(-c2nc(N[C@H]3CCN(S(C)(=O)=O)C[C@H]3F)ncc2C(F)(F)F)cn1-c1cccc(C#N)c1Cl` [Example 384, 2-Chloro-3-(4-(2-(((3R,4S)-3-fluoro-1-(methylsulfonyl)piperidin-4-yl)amino)-5-(trifluoromethyl)pyrimi-din-4-yl)-2-methyl-1H-imidazol-1-yl)benzonitrile] is no more than 50 nM. The compound `CC(C)NCc1cc(F)c(-n2cnc(-c3nc(N[C@H]4CCN(S(C)(=O)=O)C[C@H]4F)ncc3C(F)(F)F)c2)c(F)c1` [Example 386, 4-(1-(2,6-Difluoro-4-((isopropylamino)methyl)phenyl)-1H-imidazol-4-yl)-N-((3R,4S)-3-fluoro-1-(methylsulfonyl)piperidin-4-yl)-5-(trifluoromethyl)pyrimidin-2-amine] returned an IC50 of no more than 50 nM.

Compound `Cc1nc(-c2nc(N[C@H]3CCN(S(C)(=O)=O)C[C@H]3F)ncc2C(F)(F)F)cn1-c1ccc(CN2CCN(C)CC2)cc1F` [Example 387, N-((3R,4S)-3-Fluoro-1-(methylsulfonyl)piperidin-4-yl)-4-(1-(2-fluoro-4-((4-methylpiperazin-1-yl)methyl)phenyl)-2-methyl-1H-imidazol-4-yl)-5-(trifluoromethyl)pyrimidin-2-amine] showed an IC50 of no more than 50 nM. On to `Cc1nc(-c2nc(N[C@H]3CCN(S(C)(=O)=O)C[C@H]3F)ncc2C(F)(F)F)cn1-c1ccc(CNC(C)C)cc1F` [Example 388, N-((3R,4S)-3-Fluoro-1-(methylsulfonyl)piperidin-4-yl)-4-(1-(2-fluoro-4-((isoporopylamino)methyl)phenyl)-2-methyl-1H-imidazol-4-yl)-5-(trifluoromethyl)pyrimidin-2-amine], for which the IC50 was no more than 50 nM. The figure for `CCNCc1ccc(-n2cc(-c3nc(N[C@H]4CCN(S(C)(=O)=O)C[C@H]4F)ncc3C(F)(F)F)nc2C)c(F)c1` [Example 389, 4-(1-(4-((Ethylamino)methyl)-2-fluorophenyl)-2-methyl-1H-imidazol-4-yl)-N-((3R,4S)-3-fluoro-1-(methylsulfonyl)piperidin-4-yl)-5-(trifluoromethyl)pyrimidin-2-amine] is no more than 50 nM; for `CCNCc1cc(F)c(-n2cnc(-c3nc(N[C@@H]4CCN(S(C)(=O)=O)C[C@H]4F)ncc3C(F)(F)F)c2)c(F)c1` [Example 390, 4-(1-(4-((Ethylamino)methyl)-2,6-difluorophenyl)-1H-imidazol-4-yl)-N-((3R,4R)-3-fluoro-1-(methylsulfonyl)piperidin-4-yl)-5-(trifluoromethyl)pyrimidin-2-amine] it is no more than 50 nM; for `CC(C)NCc1cc(F)c(-n2cnc(-c3nc(N[C@@H]4CCN(S(C)(=O)=O)C[C@H]4F)ncc3C(F)(F)F)c2)c(F)c1` [Example 391, 4-(1-(2,6-Difluoro-4-((isopropylamino)methyl)phenyl)-1H-imidazol-4-yl)-N-((3R,4R)-3-fluoro-1-(methylsulfonyl)piperidin-4-yl)-5-(trifluoromethyl)pyrimidin-2-amine] it is no more than 50 nM.

On to `CCN1CCN(Cc2cc(F)c(-n3cnc(-c4nc(N[C@@H]5CCN(S(C)(=O)=O)C[C@H]5F)ncc4C(F)(F)F)c3)c(F)c2)CC1` [Example 392, 4-(1-(4-((4-Ethylpiperazin-1-yl)methyl)-2,6-difluorophenyl)-1H-imidazol-4-yl)-N-((3R,4R)-3-fluoro-1-(methyslulfonyl)piperidin-4-yl)-5-(trifluoromethyl)pyrimidin-2-amine], for which the IC50 is no more than 50 nM.

`CCNCc1cc(F)c(-n2cnc(-c3nc(NC4CCN(S(C)(=O)=O)CC4)ncc3C(F)(F)F)c2)c(Cl)c1` [Example 393, 4-(1-(2-Chloro-4-((ethylamino)methyl)-6-fluorophenyl)-1H-imdazol-4-yl)-N-(1-(methylsulfonyl)piperidin-4-yl)-5-(trifluoromethyl)pyrimidin-2-amine] came in with an IC50 of no more than 50 nM. Under `CC(C)NCc1cc(F)c(-n2cnc(-c3nc(NC4CCN(S(C)(=O)=O)CC4)ncc3C(F)(F)F)c2)c(Cl)c1` [Example 394, 4-(1-(2-Chloro-6-fluoro-4-((isopropylamino)methyl)phenyl)-1H-imidazol-4-yl)-N-(1-(methylsulfonyl)piperidin-4-yl)-5-(trifluoromethyl)pyrimidin-2-amine] stands no more than 50 nM.

For the compound `CS(=O)(=O)N1CCC(Nc2ncc(C(F)(F)F)c(-c3cn(-c4c(F)cc(CN5CCC5)cc4Cl)cn3)n2)CC1` [Example 395, 4-(1-(4-(Azetidin-1-ylmethyl)-2-chloro-6-fluorophenyl)-1H-imidazol-4-yl)-N-(1-(methyslulfonyl)piperidin-4-yl)-5-(trifluoromethyl)pyrimidin-2-amine], the IC50 is no more than 50 nM.

In turn, `CCN1CCN(Cc2cc(F)c(-n3cnc(-c4nc(NC5CCN(S(C)(=O)=O)CC5)ncc4C(F)(F)F)c3)c(Cl)c2)CC1` [Example 396, 4-(1-(2-Chloro-4-((4-ethylpiperazin-1-yl)methyll)-6-fluorophenyl)-1H-imidazol-4-yl)-N-(1-(methylsulfonyl)piperidin-4-yl)-5-(trifluoromethyl)pyrimidin-2-amine] yielded an IC50 of no more than 50 nM. Take `C[C@@]1(O)CCN(Cc2ccc(-n3cnc(-c4nc(N[C@@H]5CCN(S(C)(=O)=O)C[C@H]5F)ncc4C(F)(F)F)c3)c(Cl)c2)C1` [Example 397, (R)-1-(3-Chloro-4-(4-(2-(((3R,4R)-3-fluoro-1-(methylsulfonyl)piperidin-4-yl)amino)-5-(trifluoromethyl)pyrimidin-4-yl)-1H-imidazol-1-yl)benzyl)-3-methylpyrrolidin-3-ol]: the IC50 was no more than 50 nM. The figure for `CCN1CCN(Cc2ccc(-n3cnc(-c4nc(N[C@@H]5CCN(S(C)(=O)=O)C[C@H]5F)ncc4C(F)(F)F)c3)c(Cl)c2)CC1` [Example 398, 4-(1-(2-Chloro-4-((4-ethylpiperazin-1-yl)methyl)phenyl)-1H-imidazol-4-yl)-N-((3R,4R)-3-fluoro-1-(methylsulfonyl)piperidin-4-yl)-5-(trifluoromethyl)pyrimidin-2-amine] is no more than 50 nM.

`CS(=O)(=O)N1CC[C@@H](Nc2ncc(C(F)(F)F)c(-c3cn(-c4ccc(CN5CCC5)cc4Cl)cn3)n2)[C@H](F)C1` [Example 399, 4-(1-(4-(Azetidin-1-ylmethyl)-2-chlorophenyl)-1H-imidazol-4-yl)-N-((3R,4R)-3-fluoro-1-(methylsulfonyl)piperidin-4-yl)-5-(trifluoromethyl)pyrimidin-2-amine] yielded an IC50 of no more than 50 nM.
